Experimental data as given in patent US20250042875A1, “PESTICIDALLY ACTIVE PYRIDAZINONE COMPOUNDS” (SYNGENTA CROP PROTECTION AG, priority 2021, published 2025).

Key:
Assay type in all cases: in vivo
Spodoptera littoralis = test: Activity against Spodoptera littoralis (Egyptian cotton leaf worm), cotton leaf discs, L1 larvae; settings: foliar, 72 h, application rate 200 ppm, 3 days after infestation, read-out: control in at least one of the three categories (mortality, anti-feedant effect, or growth inhibition)
Protocol: Example B8: Activity Against Spodoptera littoralis (Egyptian Cotton Leaf Worm)
Cotton leaf discs were placed onto agar in 24-well microtiter plates and sprayed with aqueous test solutions prepared from 10′000 ppm DMSO stock solutions. After drying the leaf discs were infested with five L1 larvae. The samples were assessed for mortality, anti-feeding effect, and growth inhibition in comparison to untreated samples 3 days after infestation. Control of Spodoptera littoralis by a test sample is given when at least one of the categories mortality, anti-feedant effect, and growth inhibition is higher than the untreated sample.

Plutella xylostella = test: Activity against Plutella xylostella (diamond back moth), artificial diet, eggs; settings: 192 h, application rate 200 ppm, 8 days after infestation, read-out: control in at least one of the two categories (mortality or growth inhibition)
Protocol: Example B7: Activity Against Plutella xylostella (Diamond Back Moth)
24-well microtiter plates with artificial diet were treated with aqueous test solutions prepared from 10′000 ppm DMSO stock solutions by pipetting. After drying, Plutella eggs were pipetted through a plastic stencil onto a gel blotting paper and the plate was closed with it. The samples were assessed for mortality and growth inhibition in comparison to untreated samples 8 days after infestation.

Myzus persicae = test: Activity against Myzus persicae (green peach aphid), intrinsic activity; settings: 120 h, test rate 12 ppm, 5 days after infestation
Description: Example B6: Activity Against Myzus persicae (Green Peach Aphid). Intrinsic Activity
Test compounds prepared from 10′000 ppm DMSO stock solutions were applied by pipette into 24-well microtiter plates and mixed with sucrose solution. The plates were closed with a stretched Parafilm. A plastic stencil with 24 holes was placed onto the plate and infested pea seedlings were placed directly on the Parafilm. The infested plate was closed with a gel blotting paper and another plastic stencil and then turned upside down. The samples were assessed for mortality 5 days after infestation.

Chilo suppressalis = test: Activity against Chilo suppressalis (striped rice stemborer), artificial diet, L2 larvae; settings: 144 h, application rate 200 ppm, 6 days after infestation, read-out: control in at least one of the three categories (mortality, anti-feedant effect, or growth inhibition)
Protocol: Example B1: Activity Against Chilo suppressalis (Striped Rice Stemborer)
24-well microtiter plates with artificial diet were treated with aqueous test solutions prepared from 10′000 ppm DMSO stock solutions by pipetting. After drying, the plates were infested with L2 larvae (6-8 per well). The samples were assessed for mortality, anti-feeding effect, and growth inhibition in comparison to untreated samples 6 days after infestation. Control of Chilo suppressalis by a test sample is given when at least one of the categories mortality, anti-feedant effect, and growth inhibition is higher than the untreated sample.

Diabrotica balteata = test: Activity against Diabrotica balteata (corn root worm), maize sprouts, L2 larvae; settings: 96 h, application rate 200 ppm, 4 days after infestation, read-out: control in at least one of the two categories (mortality or growth inhibition)
Protocol: Example B2: Activity Against Diabrotica Balteata (Corn Root Worm)
Maize sprouts placed onto an agar layer in 24-well microtiter plates were treated with aqueous test solutions prepared from 10′000 ppm DMSO stock solutions by spraying. After drying, the plates were infested with L2 larvae (6 to 10 per well). The samples were assessed for mortality and growth inhibition in comparison to untreated samples 4 days after infestation.

Euschistus heros = test: Activity against Euschistus heros (neotropical brown stink bug), soybean leaves, N2 nymphs; settings: 120 h, application rate 200 ppm, 5 days after infestation, read-out: effect in at least one of the two categories (mortality or growth inhibition)
Protocol: Example B3: Activity Against Euschistus heros (Neotropical Brown Stink Bug)
Soybean leaves on agar in 24-well microtiter plates were sprayed with aqueous test solutions prepared from 10′000 ppm DMSO stock solutions. After drying the leaves were infested with N2 nymphs. The samples were assessed for mortality and growth inhibition in comparison to untreated samples 5 days after infestation.

CC(NC(=O)c1cc(C(F)(F)F)cc(C(F)(F)F)c1)c1nccnc1-c1ccc(=O)n(C)n1 (stereo not shown) [P3, N-[1-[3-(1-methyl-6-oxo-pyridazin-3-yl)pyrazin-2-yl]ethyl]-3,5-bis(trifluoromethyl)benzamide]
≥ 80%: percent control (mortality, anti-feedant effect or growth inhibition) at 200 ppm (Spodoptera littoralis) | percent control (mortality or growth inhibition) at 200 ppm (Plutella xylostella) | mortality at 12 ppm (Myzus persicae) | percent control (mortality, anti-feedant effect or growth inhibition) at 200 ppm (Chilo suppressalis) | percent control (mortality or growth inhibition) at 200 ppm (Diabrotica balteata)

C[C@H](NC(=O)c1cc(Cl)cc(C(F)(F)F)c1)c1ncnn1-c1ccc(=O)n(C)n1 [P4, 3-chloro-N-[(1S)-1-[2-(1-methyl-6-oxo-pyridazin-3-yl)-1,2,4-triazol-3-yl]ethyl]-5-(trifluoromethyl) benzamide]
≥ 80%: percent control (mortality, anti-feedant effect or growth inhibition) at 200 ppm (Spodoptera littoralis) | percent control (mortality or growth inhibition) at 200 ppm (Plutella xylostella) | mortality at 12 ppm (Myzus persicae) | percent control (mortality, anti-feedant effect or growth inhibition) at 200 ppm (Chilo suppressalis) | percent control (mortality or growth inhibition) at 200 ppm (Diabrotica balteata) | percent effect (mortality or growth inhibition) at 200 ppm (Euschistus heros)

CC(NC(=O)c1cc(Cl)cc(I)c1)c1nccnc1-c1ccc(=O)n(C)n1 (stereo not shown) [P12, 3-chloro-5-iodo-N-[1-[3-(1-methyl-6-oxo-pyridazin-3-yl)pyrazin-2-yl]ethyl]benzamide]
≥ 80%: percent control (mortality, anti-feedant effect or growth inhibition) at 200 ppm (Spodoptera littoralis) | percent control (mortality or growth inhibition) at 200 ppm (Plutella xylostella) | mortality at 12 ppm (Myzus persicae) | percent control (mortality, anti-feedant effect or growth inhibition) at 200 ppm (Chilo suppressalis) | percent control (mortality or growth inhibition) at 200 ppm (Diabrotica balteata)

CC(NC(=O)c1cc(Br)cc(Br)c1)c1nccnc1-c1ccc(=O)n(C)n1 (stereo not shown) [P13, 3,5-dibromo-N-[1-[3-(1-methyl-6-oxo-pyridazin-3-yl)pyrazin-2-yl]ethyl]benzamide]
≥ 80%: percent control (mortality, anti-feedant effect or growth inhibition) at 200 ppm (Spodoptera littoralis) | percent control (mortality or growth inhibition) at 200 ppm (Plutella xylostella) | mortality at 12 ppm (Myzus persicae) | percent control (mortality, anti-feedant effect or growth inhibition) at 200 ppm (Chilo suppressalis) | percent control (mortality or growth inhibition) at 200 ppm (Diabrotica balteata)

CC(NC(=O)c1cc(Br)cc(I)c1)c1nccnc1-c1ccc(=O)n(C)n1 (stereo not shown) [P15, 3-bromo-5-iodo-N-[1-[3-(1-methyl-6-oxo-pyridazin-3-yl)pyrazin-2-yl]ethyl]benzamide]
≥ 80%: percent control (mortality, anti-feedant effect or growth inhibition) at 200 ppm (Spodoptera littoralis) | percent control (mortality or growth inhibition) at 200 ppm (Plutella xylostella) | mortality at 12 ppm (Myzus persicae) | percent control (mortality, anti-feedant effect or growth inhibition) at 200 ppm (Chilo suppressalis)

C[C@H](NC(=O)c1cc(Cl)cc(S(=O)(=O)C(F)(F)F)c1)c1ncnn1C1=NN(C)C(=O)CC1 [P21, 3-chloro-N-[(1S)-1-[2-(1-methyl-6-oxo-4,5-dihydropyridazin-3-yl)-1,2,4-triazol-3-yl]ethyl]-5-(trifluoromethylsulfonyl) benzamide]
≥ 80%: percent control (mortality, anti-feedant effect or growth inhibition) at 200 ppm (Spodoptera littoralis) | percent control (mortality or growth inhibition) at 200 ppm (Plutella xylostella) | mortality at 12 ppm (Myzus persicae) | percent control (mortality, anti-feedant effect or growth inhibition) at 200 ppm (Chilo suppressalis) | percent control (mortality or growth inhibition) at 200 ppm (Diabrotica balteata) | percent effect (mortality or growth inhibition) at 200 ppm (Euschistus heros)

C[C@H](NC(=O)c1cc(C(F)(F)F)cc(C2(C#N)CC2)c1)c1ncnn1-c1ccc(=O)n(C)n1 [P25, 3-(1-cyanocyclopropyl)-N-[(1S)-1-[2-(1-methyl-6-oxo-pyridazin-3-yl)-1,2,4-triazol-3-yl]ethyl]-5-(trifluoromethyl)benzamide]
≥ 80%: percent control (mortality, anti-feedant effect or growth inhibition) at 200 ppm (Spodoptera littoralis) | percent control (mortality or growth inhibition) at 200 ppm (Plutella xylostella) | mortality at 12 ppm (Myzus persicae) | percent control (mortality, anti-feedant effect or growth inhibition) at 200 ppm (Chilo suppressalis) | percent control (mortality or growth inhibition) at 200 ppm (Diabrotica balteata) | percent effect (mortality or growth inhibition) at 200 ppm (Euschistus heros)

CC(NC(=O)c1cc(Cl)cc(S(=O)(=O)C(F)(F)F)c1)c1nccnc1-c1ccc(=O)n(C)n1 (stereo not shown) [P31, 3-chloro-N-[1-[3-(1-methyl-6-oxo-pyridazin-3-yl)pyrazin-2-yl]ethyl]-5-(trifluoromethylsulfonyl) benzamide]
≥ 80%: percent control (mortality, anti-feedant effect or growth inhibition) at 200 ppm (Spodoptera littoralis) | percent control (mortality or growth inhibition) at 200 ppm (Plutella xylostella) | mortality at 12 ppm (Myzus persicae) | percent control (mortality, anti-feedant effect or growth inhibition) at 200 ppm (Chilo suppressalis)

C[C@H](NC(=O)c1cc(I)cc(C(F)(F)F)c1)c1ncnn1-c1ccc(=O)n(C)n1 [P36, 3-iodo-N-[(1S)-1-[2-(1-methyl-6-oxo-pyridazin-3-yl)-1,2,4-triazol-3-yl]ethyl]-5-(trifluoromethyl)benzamide]
≥ 80%: percent control (mortality, anti-feedant effect or growth inhibition) at 200 ppm (Spodoptera littoralis) | percent control (mortality or growth inhibition) at 200 ppm (Plutella xylostella) | mortality at 12 ppm (Myzus persicae) | percent control (mortality, anti-feedant effect or growth inhibition) at 200 ppm (Chilo suppressalis) | percent control (mortality or growth inhibition) at 200 ppm (Diabrotica balteata) | percent effect (mortality or growth inhibition) at 200 ppm (Euschistus heros)

C[C@H](NC(=O)c1cc(Cl)cc(OC(F)F)c1)c1ncnn1-c1ccc(=O)n(C)n1 [P37, 3-chloro-5-(difluoromethoxy)-N-[(1S)-1-[2-(1-methyl-6-oxo-pyridazin-3-yl)-1,2,4-triazol-3-yl]ethyl]benzamide]
≥ 80%: percent control (mortality or growth inhibition) at 200 ppm (Plutella xylostella) | mortality at 12 ppm (Myzus persicae) | percent control (mortality or growth inhibition) at 200 ppm (Diabrotica balteata) | percent effect (mortality or growth inhibition) at 200 ppm (Euschistus heros)

CC(NC(=O)c1cc(Br)nc(C2(C#N)CC2)c1)c1nccnc1-c1ccc(=O)n(C)n1 (stereo not shown) [P38, 2-bromo-6-(1-cyanocyclopropyl)-N-[1-[3-(1-methyl-6-oxo-pyridazin-3-yl)pyrazin-2-yl]ethyl]pyridine-4-carboxamide]
≥ 80%: percent control (mortality, anti-feedant effect or growth inhibition) at 200 ppm (Spodoptera littoralis) | percent control (mortality or growth inhibition) at 200 ppm (Plutella xylostella) | percent control (mortality, anti-feedant effect or growth inhibition) at 200 ppm (Chilo suppressalis)

C[C@H](NC(=O)c1cc(Br)nc(C2(C#N)CC2)c1)c1ncnn1-c1ccc(=O)n(C)n1 [P39, 2-bromo-6-(1-cyanocyclopropyl)-N-[(1S)-1-[2-(1-methyl-6-oxo-pyridazin-3-yl)-1,2,4-triazol-3-yl]ethyl]pyridine-4-carboxamide]
≥ 80%: percent effect (mortality or growth inhibition) at 200 ppm (Euschistus heros)

CC(NC(=O)c1cc(Cl)cc(C(F)F)c1)c1nccnc1-c1ccc(=O)n(C)n1 (stereo not shown) [P41, 3-chloro-5-(difluoromethyl)-N-[1-[3-(1-methyl-6-oxo-pyridazin-3-yl)pyrazin-2-yl]ethyl]benzamide]
≥ 80%: percent control (mortality, anti-feedant effect or growth inhibition) at 200 ppm (Spodoptera littoralis) | percent control (mortality or growth inhibition) at 200 ppm (Plutella xylostella) | mortality at 12 ppm (Myzus persicae) | percent control (mortality, anti-feedant effect or growth inhibition) at 200 ppm (Chilo suppressalis) | percent control (mortality or growth inhibition) at 200 ppm (Diabrotica balteata)

C[C@H](NC(=O)c1cc(Cl)cc(C(F)F)c1)c1ncnn1-c1ccc(=O)n(C)n1 [P42, 3-chloro-5-(difluoromethyl)-N-[(1S)-1-[2-(1-methyl-6-oxo-pyridazin-3-yl)-1,2,4-triazol-3-yl]ethyl]benzamide]
≥ 80%: percent control (mortality, anti-feedant effect or growth inhibition) at 200 ppm (Spodoptera littoralis) | percent control (mortality or growth inhibition) at 200 ppm (Plutella xylostella) | mortality at 12 ppm (Myzus persicae) | percent control (mortality or growth inhibition) at 200 ppm (Diabrotica balteata) | percent effect (mortality or growth inhibition) at 200 ppm (Euschistus heros)

CC(NC(=O)c1cc(Br)cc(C(F)(F)F)c1)c1nccnc1-c1cn(C)c(=O)cn1 (stereo not shown) [P48, 3-bromo-N-[1-[3-(4-methyl-5-oxo-pyrazin-2-yl)pyrazin-2-yl]ethyl]-5-(trifluoromethyl)benzamide]
≥ 80%: percent control (mortality, anti-feedant effect or growth inhibition) at 200 ppm (Spodoptera littoralis) | percent control (mortality or growth inhibition) at 200 ppm (Plutella xylostella) | mortality at 12 ppm (Myzus persicae) | percent control (mortality, anti-feedant effect or growth inhibition) at 200 ppm (Chilo suppressalis) | percent control (mortality or growth inhibition) at 200 ppm (Diabrotica balteata)
